Measured values: EP0105658A1, “Beta-lactam compounds” (BEECHAM GROUP PLC, priority 1982, dated 1984)
Converted amounts (≈) assume the structure as drawn. Read-outs that look alike come from different tables or passages of the source.

Experiments:
[1] = tested on: Pseudomonas aeruginosa A; assay: MIC, antibacterial activity (microtitre using nutrient broth); format: cell-based; conditions: for MIC: Pseudomonas aeruginosa
[2] = tested on: R + E coli; assay: as above; format: cell-based; conditions: * racemic, not corrected for presence of inactive enantiomer
[3] = tested on: S aureus Russell; assay: as above; format: cell-based; conditions: * racemic, not corrected for presence of inactive enantiomer
[4] = tested on: S typhimurium CT10; assay: as above; format: cell-based; conditions: * racemic, not corrected for presence of inactive enantiomer
[5] = Stability in kidney preparations (pig); format: in vitro ADME; conditions: 100 mg/ml solubilised in 5% Triton X-100, * racemic compounds: figures based on stability of bio-active enantiomer
[6] = Stability in kidney preparations (human); format: in vitro ADME
[7] = tested on: E. coli JT39; assay: MIC against E. coli JT39; format: cell-based; parameters: unit not given here
[8] = Microtitre using Nutrient broth, * racemic, not corrected for presence of inactive enantiomer, read-out: MIC P aeruginosa A
[9] = 15% solubilised in 5% Triton X-100, 60 minutes, * racemic compounds: figures based on stability of bio-active enantiomer

SMILES	MIC [1, 8]	MIC [2]	MIC [3]	MIC [4]	% left after 60 minutes Pig Kidney Acetone Powder [5]	% left after 60 minutes Human Kidney Sonicate [6, 9]	MIC P aeruginosa A ([1]; Microtitre using Nutrient broth, * racemic, not corrected for presence of inactive enantiomer)	MIC R + E coli [2]	MIC S aureus Russell [3]	MIC S typhimurium CT10 [4]	% left after 60 minutes Human Kidney Sonicate ([6]; human, 60 min)	MIC against E. coli JT39 [7]	MIC ([1]; read-out: MIC against Pseudomonas aeruginosa A)
C[C@@H](O)[C@H]1C(=O)N2C(C(=O)O)=C(S/C=C\CN)C[C@H]12 (racemic) [Example 13, (5RS, 6SR)-3-[(Z)-3-Aminoprop-1-enylthio]-b-[(1RS)-1-hydroxyethyl]-7-oxo-1-azabicyclo[3.2.0]hept-2-ene-2-carboxylic acid]	25 µg/mL	0.4 µg/mL	0.08 µg/mL	0.6 µg/mL	40%	39%	–	–	–	–	–	–	–
C[C@H](O)[C@@H]1C(=O)N2C(C(=O)O)=C(S/C=C/CN)C[C@H]12 [Example 11, (5R,6R)-3-[(E)-3-aminoprop-1-enylthio]-6-[(S)-1-hydroxyethyl]-7-oxo-1-azabicyelo[3.2.0]hept-2-ene-2-carboxylic acid]	12.5 µg/mL	< 0.1 µg/mL	< 0.1 µg/mL	0.4 µg/mL	6%	7%	–	–	–	–	–	–	–
C[C@@H](O)[C@H]1C(=O)N2C(C(=O)O)=C(S/C=C\CN)C[C@H]12 [Example 2, (5R,6S)-3-[(Z)-3-aminoprop-1-enylthio]-6-[(R)-1-hydroxyethyl]-7-oxo-1-azabicy,clo[3.2.0]hept-2-ene-2-carboxylic acid]	–	–	–	–	–	–	25 µg/mL	0.3 µg/mL	0.08 µg/mL	0.6 µg/mL	–	–	–
C/C(=C\CN)SC1=C(C(=O)O)N2C(=O)[C@H]([C@@H](C)O)[C@H]2C1 (racemic) [Example 14, (5RS, 6SR)-3-[(E)-3-amino-1-methylprop-1-enylthio]-6-[(RS)-1-hydroxyethyl]-7-oxo=1-azabicyclo[3.2.0]hept-2-ene-2-carboxylic acid]	25 µg/mL	0.4 µg/mL	< 0.1 µg/mL	0.4 µg/mL	36%	23%	–	–	–	–	–	–	–
C[C@@H](O)[C@H]1C(=O)N2C(C(=O)O)=C(S/C=C/CN)C[C@H]12 [Example 12, (5R, 6S)-3-[(E)-3-aminoprop-1-enylthio]-6-[(R)-1-hydroxyethyl]-7-oxo-1-azabicyclo[3.2.0]hept-2-ene-2-carboxylic acid]	12.5 µg/mL	–	< 0.1 µg/mL	0.2 µg/mL	–	–	–	–	–	–	5%	–	–
C[C@H](O)[C@@H]1C(=O)N2C(C(=O)O)=C(S/C=C\CN)C[C@H]12 [Example 1]	–	–	–	–	39%	40%	–	–	–	–	–	0.4	6.2 µg/mL (≈ 21.8 µM)
C/C(=C\CN)SC1=C(C(=O)O)N2C(=O)[C@@H]([C@H](C)O)[C@H]2C1 [Example 16, (5R, 6R)-3-[(E)-3-amino-1-methylprop-1-enylthio]-6-[(S)-1-hydroxyethyl]-7-oxo-1-azabicyclo[3.2.0]hept-2-ene-2-carboxylate]	25 µg/mL	1.6 µg/mL	< 0.1 µg/mL	0.2 µg/mL	38%	13%	–	–	–	–	–	–	–
C/C(=C/CN)SC1=C(C(=O)O)N2C(=O)[C@@H]([C@H](C)O)[C@H]2C1 [Example 8]	25 µg/mL	1.6 µg/mL	< 0.1 µg/mL	< 0.1 µg/mL	78%	51%	–	–	–	–	–	–	–
C/C(=C/CN)SC1=C(C(=O)O)N2C(=O)[C@H]([C@@H](C)O)[C@H]2C1 [Example 10, (5R,6S)-3-[(Z)-3-amino-1-methylprop-1-enylthio]-6-[(R)-1-hydroxyethyl]-7-oxo-1-azabicyclo[3.2.0]hept-2-ene-2-carboxylic acid]	25 µg/mL	–	0.1 µg/mL	0.2 µg/mL	–	–	–	–	–	–	56%	–	–
